Read-outs that look alike come from different tables or passages of the source.
Biological target: S1P1 (Homo sapiens (Human), UniProt P21453)
Experiment: S1P1 agonist assay (Ec50 S1P1Ag)
Type: cell-based
Source text: The exact dosage will depend upon the activity of the compound, mode of administration, on the therapy desired, form in which administered, the subject to be treated and the body weight of the subject to be treated, and the preference and experience of the physician or veterinarian in charge. S1P1 agonist bioactivity of the compounds of the invention can be determined by use of an in vitro assay system which measures the activation of S1P1, which can be expressed as EC50 values, as are well known in the art inhibitors of the invention can be determined by the method described in the Examples.

S1P1, sequence (P21453 whole entry): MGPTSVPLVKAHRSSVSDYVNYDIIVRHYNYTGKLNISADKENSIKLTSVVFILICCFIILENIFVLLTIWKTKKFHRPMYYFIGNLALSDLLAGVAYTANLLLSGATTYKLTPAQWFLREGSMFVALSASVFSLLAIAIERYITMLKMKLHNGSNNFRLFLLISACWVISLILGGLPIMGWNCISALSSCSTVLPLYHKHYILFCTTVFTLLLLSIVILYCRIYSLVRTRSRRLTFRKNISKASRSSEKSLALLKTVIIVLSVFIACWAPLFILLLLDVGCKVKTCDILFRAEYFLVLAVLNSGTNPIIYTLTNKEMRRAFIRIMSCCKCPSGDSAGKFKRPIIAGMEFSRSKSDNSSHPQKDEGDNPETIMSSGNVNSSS

| SMILES | EC50 [µM] | EC50 (unit μM/uM) [µM] |
| --- | --- | --- |
| CCOc1ccc(-c2nc(-c3ccc(N4CCN(C)CC4)cc3C)no2)cc1OCC [Compound 100] | 0.0863 |  |
| CCOc1ccc(-c2nc(-c3ccc4c(c3)NC(=O)C4)no2)cc1OCC [Compound 155] | 0.0017 |  |
| CCOc1ccc(-c2cc(-c3ccncc3)no2)cc1OCC [Compound 269] | 0.112 |  |
| CCOc1ccc(-c2nc(-c3ccc(CNCCO)cc3C)no2)cc1OCC [Compound 252] | 0.0101 |  |
| CCOc1ccc(-c2nc(-c3ccc(CN(C)C)cc3C)no2)cc1OCC [Compound 128] | 0.0191 |  |
| COc1cc(-c2noc(-c3cc(C)nc(Cl)c3)n2)ccc1C [Compound 28] | 0.477 |  |
| FC(F)(F)c1cc(-c2nc(-c3ccc(CN4CCCC4)cc3)no2)ccc1-c1ccccc1 [Compound 82] | 0.048 |  |
| CCOc1cccc(-c2nc(-c3ccnc(N)c3)no2)c1 [Compound 65] | 0.319 |  |
| NS(=O)(=O)c1ccc(-c2noc(-c3cc(Cl)nc(Cl)c3)n2)cc1 [Compound 22] | 1.03 |  |
| COc1cc(-c2noc(-c3ccncc3)n2)ccc1C [Compound 44] | 0.731 |  |
| CCOc1ccc(-c2nc(-c3ccc(CN(C)C)cc3)no2)cc1OCC [Compound 81] | 0.123 |  |
| CCOc1ccc(-c2nc(-c3cccc(OC(F)(F)F)c3)no2)cc1OCC [Compound 205] |  | 10 |
| CCOc1ccc(-c2nc(-c3ccc4c(c3)NCC4)no2)cc1OCC [Compound 150] | 0.0042 |  |
| CCOc1ccc(-c2nc(-c3cccc4[nH]cc(CNC)c34)no2)cc1OCC [Compound 233] | 0.581 |  |
| COc1cc(-c2noc(-c3ccnnc3)n2)ccc1C [Compound 41] | 7.7 |  |
| CCOc1ccc(-c2nc(-c3ccc4c(c3)CCN4CCCO)no2)cc1OCC [Compound 258] | 0.001 |  |
| FC(F)(F)c1ccc(-c2noc(-c3ccnnc3)n2)cc1 [Compound 4] |  | 7.8 |
| CCOc1ccc(-c2nc(-c3cccc4c3CCC4=O)no2)cc1OCC [Compound 227] | 0.0213 |  |
| CCOc1cccc(-c2nc(-c3cncc(C)c3)no2)c1 [Compound 66] | 1.99 |  |
| CCOc1ccc(-c2nc(-c3ccc4[nH]cc(CN(C)CCO)c4c3)no2)cc1OCC [Compound 240] | 3.1 |  |
| CCOc1ccc(-c2nc(-c3cccc4c3CCC4O)no2)cc1C(F)(F)F (stereo not drawn) [Compound 260, 4-(5-(4-ethoxy-3-(trifluoromethyl)phenyl)-1,2,4-oxadiazol-3-yl)-2,3-dihydro-1H-inden-1-ol] | < 0.0005 |  |

| SMILES | EC50 [µM] | EC50 (unit μM/uM) [µM] |
| --- | --- | --- |
| COc1ccc(-c2nc(-c3ccccc3)no2)cc1 [Compound 8] |  | 73 |
| CCOc1ccc(-c2nc(-c3cccc4[nH]cc(CNCCN(C)C)c34)no2)cc1OCC [Compound 222] | 0.284 |  |
| CCOc1ccc(-c2nc(-c3ccnc(CN4CC[C@@H](O)C4)c3)no2)cc1OCC [Compound 235] | 0.0821 |  |
| COc1cc(-c2noc(-c3cc(CC(C)C)no3)n2)ccc1C [Compound 30] | 1.39 |  |
| CCOc1ccc(-c2nc(-c3ccc(OC(F)(F)F)cc3)no2)cc1OCC [Compound 206] | > 5 |  |
| CCOc1ccc(-c2nc(-c3ccccn3)no2)cc1OCC [Compound 33] | 0.116 |  |
| CCOc1ccc(-c2nc(-c3cncc(CO)c3)no2)cc1OCC [Compound 225] | 0.0245 |  |
| CCOc1ccc(-c2ncc(-c3ccncc3)o2)cc1OCC [Compound 268] | 0.0107 |  |
| COc1cc(-c2nc(-c3ccc(S(N)(=O)=O)cc3)no2)ccn1 [Compound 19] |  | 12 |
| CCn1nc(C)cc1-c1nc(-c2ccc(C)c(OC)c2)no1 [Compound 48] | 0.295 |  |
| CCOc1ccc(-c2nnc(-c3ccncc3)[nH]2)cc1OCC [Compound 93] | 2.8 |  |
| CCOc1ccc(-c2nc(-c3cccc4[nH]cc(CN5CC[C@@H](O)C5)c34)no2)cc1OCC [Compound 231] | 0.12 |  |
| CC(C)Oc1ccc(-c2ncc(-c3cccc4c3CCC4O)o2)cc1C#N (stereo not drawn) [Compound 270] | 0.0025 |  |
| FC(F)(F)c1cc(-c2nc(-c3cccnc3)no2)ccc1-c1ccccc1 [Compound 63] | 0.129 |  |
| CCOc1ccc(-c2nc(-c3ccc4[nH]cc(CNCCO)c4c3)no2)cc1OCC [Compound 239] | 0.867 |  |
| CCOc1ccc(-c2nc(-c3cccc4[nH]cc(CN(C)CCO)c34)no2)cc1OCC [Compound 221] | 1.4 |  |
| CCOc1ccc(-c2nc(-c3cccc4c3CCC4N3CC[C@@H](O)C3)no2)cc1OCC (stereo partly drawn) [Compound 250] | 0.0061 |  |
| CCOc1ccc(-c2nc(-c3cccc4c3CCC4O)no2)cc1[N+](=O)[O-] (stereo not drawn) [Compound 266, 4-(5-(4-ethoxy-3-nitrophenyl)-1,2,4-oxadiazol-3-yl)-2,3-dihydro-1H-inden-1-ol] | 0.224 |  |
| CCOc1ccc(-c2nc(-c3cccc4[nH]cc(CN5CC[C@H](O)C5)c34)no2)cc1OCC [Compound 230] | 0.3 |  |
| CCOc1ccc(-c2nnc(-c3ccncc3)o2)cc1OCC [Compound 89] | 0.224 |  |
| CC(C)Oc1ccc(-c2ncc(-c3cccc4c3CCC4NCCO)o2)cc1C#N (stereo not drawn) [Compound 271] | < 0.0005 |  |

| SMILES | EC50 [µM] | EC50 (unit μM/uM) [µM] |
| --- | --- | --- |
| CCOc1ccc(-c2nc(-c3ccc(CN4CCCC4)c(C)c3)no2)cc1OCC [Compound 202] | 0.0358 |  |
| CCOc1ccc(-c2nc(-c3cccc(C)c3C)no2)cc1OCC [Compound 166] | 0.0125 |  |
| CCOc1ccc(-c2nc(-c3ccc(CN4CCCC4)cc3C)no2)cc1OCC [Compound 125] | 0.171 |  |
| CCOc1ccc(-c2nc(-c3ccc(CO)c(C)c3)no2)cc1OCC [Compound 200] | 0.104 |  |
| CCOc1ccc(-c2nc(-c3cc4ccccc4cn3)no2)cc1OCC [Compound 208] | 0.154 |  |
| COc1cc(-c2noc(-c3cccnc3)n2)ccc1C [Compound 24] | 1.8 |  |
| CCOc1ccc(-c2nc(-c3ccc(Br)c(C)c3)no2)cc1OCC [Compound 185] | 0.245 |  |
| CCOc1ccc(-c2nc(-c3cccc4c3CCC4NCCO)no2)cc1C(F)(F)F (stereo not drawn) [Compound 264, 2-(4-(5-(4-ethoxy-3-(trifluoromethyl)phenyl)-1,2,4-oxadiazol-3-yl)-2,3-dihydro-1H-inden-1-ylamino)ethanol] | 0.008 |  |
| FC(F)(F)c1ccc(-c2noc(-c3cccnc3)n2)cc1 [Compound 2] |  | 6.5 |
| CCOc1ccc(-c2nc(-c3ccc(CN4CCCC4)cc3)no2)cc1OCC [Compound 80] | 0.0865 |  |
| COc1cc(-c2noc(-c3cc4ccccc4s3)n2)ccc1C [Compound 47] |  | 31.8 |
| COc1cc(-c2noc(Cc3ccncc3)n2)ccc1C [Compound 42] | 0.909 |  |
| CCOc1ccc(-c2nc(-c3cccc4c3CCN4CCN(CC)CC)no2)cc1OCC [Compound 232] | 0.0939 |  |
| Cc1ccc(-c2nc(-c3ccnc(N)c3)no2)cc1C(F)(F)F [Compound 69] | 0.197 |  |
| CCOc1ccc(-c2nc(-c3ccc4occc4c3)no2)cc1OCC [Compound 253] | 0.0266 |  |
| COc1cc(-c2noc(-c3cc(Cl)nc(Cl)c3)n2)ccc1C [Compound 45] | 1.48 |  |
| COc1cc(-c2nc(-c3ccc(C)c(OC)c3)no2)ccn1 [Compound 40] | 0.621 |  |
| CCOc1ccc(-c2nc(-c3cccc(Br)c3C)no2)cc1OCC [Compound 121] | 0.639 |  |
| CCOc1ccc(-c2nc(-c3ccnc(CNC(C)(C)CO)c3)no2)cc1OCC [Compound 218] | 0.132 |  |
| c1ccc(Cc2nc(-c3ccncc3)no2)cc1 [Compound 105] | 8.4 |  |
| CCOc1ccc(-c2nc(-c3cncc(C(=O)OC)c3)no2)cc1OCC [Compound 220] | 0.028 |  |

Reference: patent publication US10544136B2, “Modulators of sphingosine phosphate receptors” (The Scripps Research Institute, priority 2008, dated 2020)
